Patent US10947252B2, “Inhibitors of KEAP1-Nrf2 protein-protein interaction” (Janssen Pharmaceutica NV, priority 2018, dated 2021)
pEC50, pKd: −log10 of the molar value.

Experiments:
[1] = tested on: Glo-Response ARE-luc2P HEK293 cell line; assay: ARE luciferase reporter cell-based assay; details: Homo sapiens, HEK293, 24 h, average of results obtained;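 note: luciferase signal tracks Nrf2 activation of the ARE once compounds disrupt KEAP1-Nrf2 binding, read with One-Glo reagent, DMSO serving as low control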
Description: The ARE assay utilizes a luciferase reporter cell line where the signal is proportional to NrF2 activation of the ARE. The cell line is commercially available from Promega and was prepared by stably transfecting HEK293 cells with a vector (pGL4.11) which contains the ARE response element upstream of a minimal promoter. The promoter drives expression of luc2 firefly luciferase gene. Upon disruption of KEAP1-Nrf2 binding by compound, Nrf2 translocates into the nucleus where it binds to the ARE and activates transcription of luciferase.
The materials used in this ARE assay are as follows: Glo-Response ARE-luc2P HEK293 cell line and One-Glo Luciferase Assay System were purchased from Promega (Madison, Wis.). Dulbecco's Modified Eagle medium ((DMEM), low glucose, GlutaMAX, pyruvate), fetal bovine serum (certified, heat inactivated), hygromycin B, Dulbecco's phosphate-buffered saline were purchased from Life Technologies (Grand Island, N.Y.). Penicillin, streptomycin solution (100×) and 0.05% trypsin-EDTA were purchased from Corning (Manassas, Va.). DMSO was purchased from EMD Millipore.
The ARE assay protocol is as follows: cells were maintained in growth medium (DMEM+10% FBS, 200 μg/mL hygromycin B, p-s) between 20-90% confluency by splitting twice per week. One day before the assay, cells were trypsinized, counted to determine viable cell count, and re-suspended in assay medium (DMEM+10% FBS, p-s) at 250,000 cells/mL. […] 100% DMSO was used as the low control. A 11-point dose series of the control compound was included on every plate. Compounds were spotted to an intermediate plate (Greiner #781280 V-bottom 384 well plate) using the Echo acoustic dispenser (Labscyte San Jose, Calif.). Spot size was 240 nL.
On the day of the assay, 60 mL per well of assay medium was added to the pre-spotted plate to make 2× compound stocks using the Combi (Thermo Waltham, Mass.). Compound and medium were mixed on the Janus and 20 mL of 2×compound stock was added to the cell plate which already contained 20 mL of assay medium from cell plating. […] The plates were returned to the tissue culture incubator for 24 hours.
The next day, luciferase activity was measured according to the manufacturer's protocol for One-Glo luciferase reagent. The plates were removed from the incubator and allowed to equilibrate to room temperature for 30 min. Forty microliters of One-Glo reagent (equilibrated to room temperature) was added per well using the Combi. The plates were mixed on an orbital shaker for 3 min. Luminescence was read on the BMG Pherastar multiplate reader (Cary, N.C.) using the luminescence protocol (1 sec interval).
The dose-response data were analyzed in Genedata Screener using 4PL nonlinear regression model. Raw luminescence counts as well as normalized values were used for data analysis.

[2] = target: Kelch domain of human KEAP1 (321-624 aa) (Homo sapiens (Human), UniProt Q14145); assay: KEAP1 KELCH ThermoFluor binding assay; details: KEAP Kelch […], 1,8-ANS, pH 7.0, average of results obtained, read-out: Tf Kd;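 note: Ligand-induced melting temperature shift of E. coli-expressed KEAP1 Kelch protein, Kd estimated from concentration-response curves of ΔTm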
Chain of Kelch domain of human KEAP1 (321-624 aa) (Q14145 321-624): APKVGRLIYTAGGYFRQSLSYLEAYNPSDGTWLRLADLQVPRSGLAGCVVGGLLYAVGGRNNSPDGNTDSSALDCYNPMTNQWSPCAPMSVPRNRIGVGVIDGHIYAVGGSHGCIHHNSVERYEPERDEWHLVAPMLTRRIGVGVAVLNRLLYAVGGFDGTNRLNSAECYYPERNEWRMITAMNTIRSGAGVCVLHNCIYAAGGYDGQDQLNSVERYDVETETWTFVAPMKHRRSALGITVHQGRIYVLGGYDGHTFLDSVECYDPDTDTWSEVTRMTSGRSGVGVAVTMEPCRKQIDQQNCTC

| Compound | pKd [2] | pEC50 [1] |
| --- | --- | --- |
| Cc1ccc([C@H](CC(=O)O)c2ccn3c(C(F)(F)F)nnc3c2C)cc1CN1CC2(CC2)Oc2nc(O)ccc2S1(=O)=O (single isomer, unassigned) [Example 103, (*S)-3-(3-((7′-Hydroxy-1′,1′-dioxidospiro[cyclopropane-1,4′-pyrido[2,3,-b][1,4,5]oxathiazepin]-2′(3′H)-yl)methyl)-4-methylphenyl)-3-(8-methyl-3-(trifluoromethyl)-[1,2,4]triazolo[4,3-a]pyridine-7-yl)propanoic Acid] | 8.80 | 5.04 |
| Cc1cnc2c(c1)S(=O)(=O)N(Cc1cc([C@H](CC(=O)O)c3ccn4c(C(F)(F)F)nnc4c3C)ccc1C#N)CC1(CC1)O2 (single isomer, unassigned) [Example 105, (*S)-3-(4-Cyano-3-((8′-methyl-1′,1′-dioxidospiro[cyclopropane-1,4′-pyrido[2,3-b][1,4,5]oxathiazepin]-2′(3′H)-yl)methyl)phenyl)-3-(8-methyl-3-(trifluoromethyl)-[1,2,4]trizolo[4,3-a]pyridine-7-yl)propanoic Acid] | 7.80 | 4.84 |
| Cc1cnc2c(c1)S(=O)(=O)N(Cc1cc([C@@H](CC(=O)O)c3ccn4c(C(F)(F)F)nnc4c3C)ccc1C#N)CC1(CC1)O2 (single isomer, unassigned) [Example 106, (*R)-3-(4-Cyano-3-((8′-methyl-1′,1′-dioxidospiro[cyclopropane-1,4′-pyrido[2,3-b][1,4,5]oxathiazepin]-2′(3′H)-yl)methyl)phenyl)-3-(8-methyl-3-(trifluoromethyl)-[1,2,4]trizolo[4,3-a]pyridine-7-yl)propanoic Acid] | 7.68 | < 4.70 |
| COCCCNc1ccc2c(n1)OC1(CC1)CN(Cc1cc([C@H](CC(=O)O)c3ccn4c(C(F)(F)F)nnc4c3C)ccc1C)S2(=O)=O (single isomer, unassigned) [Example 107, (*S)-3-(3-((7′-((3-Methoxypropyl)amino)-1′,1′-dioxidospiro[cyclopropane-1,4′-pyrido[2,3-b][1,4,5]oxathiazepin]-2′(3′H)-yl)methyl)-4-methylphenyl)-3-(8-methyl-3-(trifluoromethyl)-[1,2,4]triazolo[4,3-a]pyridine-7-yl)propanoic Acid] | > 9.00 | 6.59 |
| Cc1ccc([C@H](CC(=O)O)c2ccn3c(C(F)(F)F)nnc3c2C)cc1CN1CC2(CC2)Oc2nc(N(C)CCCO)ccc2S1(=O)=O (single isomer, unassigned) [Example 108, (*S)-3-(-3-((7′-((3-Hydroxypropyl)(methyl)amino)-1′,1′-dioxidospiro[cyclopropane-1,4′-pyrido[2,3-b][1,4,5]oxathiazepin]-2′(3′H)-yl)methyl)-4-methylphenyl)-3-(8-methyl-3-(trifluoromethyl)-[1,2,4[triazolo[4,3-a]pyridine-7-yl)propanoic Acid] | > 9.00 | 6.39 |
| Cc1ccc([C@H](CC(=O)O)c2ccn3c(C(F)(F)F)nnc3c2C)cc1CN1CC2(CC2)Oc2nc(NCCN3CCOCC3)ccc2S1(=O)=O (single isomer, unassigned) [Example 111, (*S)-3-(4-Methyl-((7′-((2-morpholinoethyl)amino)-1′,1′-dioxidospiro[cyclopropane-1,4′-pyrido[2,3-b][1,4,5]oxathiazepin]-2′(3′H)-yl)methyl)-4-methylphenyl)-3-(8-methyl-3-(trifluoromethyl)-[1,2,4 [triazolo[4,3-a]pyridine-7-yl)propanoic Acid] | > 9.00 | 6.23 |

Further lines, with some results ahead:

| pKd [2] | Compound | pEC50 [1] |
| --- | --- | --- |
| > 9.00 | Cc1ccc([C@H](CC(=O)O)c2ccn3c(C(F)(F)F)nnc3c2C)cc1CN1CC2(CC2)Oc2nc(NCCN3CCCCC3)ccc2S1(=O)=O (single isomer, unassigned) [Example 112, (*S)-3-(3-((1′,1′-Dioxido-7′-((2-(piperidin-1-yl)ethyl)amino)spiro[cyclopropane-1,4′-pyrido[2,3-b][1,4,5]oxathiazepin]-2′(3′H)-yl)methyl)-4-methylphenyl)-3-(8-methyl-3-(trifluoromethyl)-[1,2,4[triazolo[4,3-a]pyridine-7-yl)propanoic Acid] | 5.88 |
| > 9.00 | Cc1ccc([C@@H](c2ccn3c(C(F)(F)F)nnc3c2C)C(C)(C)C(=O)O)cc1CN1CC2(CCOCC2)Oc2nc(N[C@H](C)CCO)ccc2S1(=O)=O (single isomer, unassigned) [Example 119, (*S)-3-(3-((7′-(((R)-4-Hydroxybutan-2-yl)amino)-1′,1′-dioxido-2,3,5,6-tetrahydrospiro[pyran-4,4′-pyrido[2,3-b][1,4,5]oxathiazepin]-2′(3′H)-yl)methyl)-4-methylphenyl)-2,2-dimethyl-3-(8-methyl-3-(trifluoromethyl)-[1,2,4[triazolo[4,3-a]pyridine-7-yl)propanoic Acid] | 6.78 |
| 5.07 | Cc1ccc([C@H](c2ccn3c(C(F)(F)F)nnc3c2C)C(C)(C)C(=O)O)cc1CN1CC2(CCOCC2)Oc2nc(N[C@H](C)CCO)ccc2S1(=O)=O (single isomer, unassigned) [Example 120, (*R)-3-(3-((7′-(((R)-4-Hydroxybutan-2-yl)amino)-1′,1′-dioxido-2,3,5,6-tetrahydrospiro[pyran-4,4′-pyrido[2,3-b][1,4,5]oxathiazepin]-2′(3′H)-yl)methyl)-4-methylphenyl)-2,2-dimethyl-3-(8-methyl-3-(trifluoromethyl)-[1,2,4[triazolo[4,3-a]pyridine-7-yl)propanoic Acid] | 4.71 |
| > 9.00 | Cc1ccc([C@@H](c2ccn3c(C(F)(F)F)nnc3c2C)C(C)(C)C(=O)O)cc1CN1CC2(CCOCC2)Oc2nc(N[C@@H](C)CCO)ccc2S1(=O)=O (single isomer, unassigned) [Example 121, (*S)-3-(3-((7′-(((S)-4-Hydroxybutan-2-yl)amino)-1′,1′-dioxido-2,3,5,6-tetrahydrospiro[pyran-4,4′-pyrido[2,3-b][1,4,5]oxathiazepin]-2′(3′H)-yl)methyl)-4-methylphenyl)-2,2-dimethyl-3-(8-methyl-3-(trifluoromethyl)-[1,2,4[triazolo[4,3-a]pyridine-7-yl)propanoic Acid] | 6.81 |
| 5.05 | Cc1ccc([C@H](c2ccn3c(C(F)(F)F)nnc3c2C)C(C)(C)C(=O)O)cc1CN1CC2(CCOCC2)Oc2nc(N[C@@H](C)CCO)ccc2S1(=O)=O (single isomer, unassigned) [Example 122, (*R)-3-(3-((7′-(((S)-4-Hydroxybutan-2-yl)amino)-1′,1′-dioxido-2,3,5,6-tetrahydrospiro[pyran-4,4′-pyrido[2,3-b][1,4,5]oxathiazepin]-2′(3′H)-yl)methyl)-4-methylphenyl)-2,2-dimethyl-3-(8-methyl-3-(trifluoromethyl)-[1,2,4[triazolo[4,3-a]pyridine-7-yl)propanoic Acid] | 4.89 |
| > 9.00 | Cc1ccc([C@H](c2ccn3c(C(F)(F)F)nnc3c2C)C(C)(C)C(=O)O)cc1CN1CC2(CCOCC2)Oc2nc(N[C@@H](C)CCO)c(C)cc2S1(=O)=O (single isomer, unassigned) [Example 123, (*R)-3-(3-((7′-(((S)-4-Hydroxybutan-2-yl)amino)-8′-methyl-1′,1′-dioxido-2,3,5,6-tetrahydrospiro[pyran-4,4′-pyrido[2,3-b][1,4,5]oxathiazepin]-2′(3′H)-yl)methyl)-4-methylphenyl)-2,2-dimethyl-3-(8-methyl-3-(trifluoromethyl)-[1,2,4[triazolo[4,3-a]pyridine-7-yl)propanoic Acid] | 7.54 |
